Test results reported in patent US10682371B2, “Small molecule conjugates specifically activated in tumor microenvironment for targeting and use thereof” (priority 2014, dated 2020).
Where two headings read alike, the source gives them in different places.

What was measured:
tumor tissue homogenates = assay type: biochemical
How it was run: (§1)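 Activation efficiency by tissue proteases is the read-out. Each sample compound, at 1 mg/ml, was incubated with 100 μg of acid-treated homogenate at pH6.0 and 37° C.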

[1] = tested on: Human fibrosarcoma HT-1080 tumor tissue homogenate; assay type: biochemical; details: for Activation Efficiencies (%): Human fibrosarcoma HT-1080 tumor tissue homogenate (30 μg/ml), 1 mg/ml compound; for Activation ratio (%) in homogenates from different tumor tissues: Human fibrosarcoma HT-1080
How it was run: as §1

Human heart = assay type: biochemical; details: for Activation Efficiencies (%): Human heart homogenate, 1 mg/ml compound; for Activation ratio (%) in homogenates from different tumor tissues: Human heart, 1 mg/ml
BALB/C mice = assay: Maximum tolerated dose (MTD) / acute toxicity by single intravenous injection; details: for MTD (maximum tolerated dose): intravenous injection, one time
4T1 cells = assay: BALB/C mice model for tumor metastasis (4T1, lung metastases); assay type: in vivo; details: for Inhibitory rate on metastasis / Number of metastasized tumor: IV every three days for 4 times; for Inhibitory effect on tumor metastasis, in words: compared with parent drug group and control group
How it was run: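 10^6 4T1 cells (DMEM, 10% FBS, within passage 15) injected subcutaneously into the back of BALB/C mice; primary tumor resected at about 1.5 cm, then dosing began. Drugs given IV once every three days, 4 times; saline controls. Lungs removed day 27, Bouin's-stained, metastases counted under anatomical microscope.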

[2] = Solubility / formulation test in solvent 1 and solvent 2; assay type: physicochemical; details: for Concentration achieved, completely dissolved in both solvent 1 and solvent 2: solvent 1 injectable water
Method: In Table 11, AAN, AANL and AANK indicate the linkage formed by small peptides in the compounds, A is Ala, N is Asn, L is Leu and K is Lys. […] The dissolution concentration is 10 mg/ml.
B1, B2, B3 and B4 and various control compounds were dried under vacuum, sterilized via gas sterilization, and separately packing in a sterile room. Before animal test, B1, B2, B3 and B4 were dissolved by solvent 1 (injectable water) or solvent 2 (30% alcohol, 70% injectable water) and diluted by injectable water to the desired concentration in sterile room. […] Change in solubility may greatly affect the formulation scheme of a drug.
D1, D2, D3, D4 and various control compounds were dried under vacuum, sterilized via gas sterilization, and separately packing in a sterile room. […] Change in solubility may greatly affect the formulation scheme of a drug.

[3] = tested on: Human prostate cancer PC-3 cells / Panc-1 cells; assay: Tumor treatment in nude mice (PC-3 cells purchased, Panc-1 cells injected; Examples 22, 32, 42); assay type: in vivo; details: for Inhibition on tumor growth, in words: compared with parent drug group (same molar concentration) and control group; for Size of tumor (mm^3) Day 10 / inhibitory rate on tumor Day 10 / Size of tumor (mm^3) Day 24 / inhibitory rate on tumor Day 24: nude mice, IV once weekly for four weeks, Paclitaxel 8 mg/kg
How it was run: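 Nude mice bearing subcutaneous Panc-1 xenografts (5×10^6 cells on the back) were randomized once tumors reached at least 100 mm^3. Drugs were given intravenously once weekly for four weeks, with saline controls. PC-3 cells were grown in DMEM/10% FBS and used within passage 15.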

[4] = BALB/C mice receiving 90 mg/kg injection
[5] = 4T1, BALB/C mice, lung, day 27, S1′-S4′ 12 mg/kg, Paclitaxel 4 mg/kg
[6] = single intravenous injection, 125 mg/kg, 10 BALB/C mice per group
[7] = single intravenous injection, 150 mg/kg, 10 BALB/C mice per group
[8] = single intravenous injection, 175 mg/kg, 10 BALB/C mice per group
[9] = single intravenous injection, 200 mg/kg, 10 BALB/C mice per group
[10] = Table 28, BALB/C mice, 4T1, lung metastases day 27, A1-A4 12 mg/kg, Paclitaxel 4 mg/kg
[11] = Table 50, BALB/C mice, 4T1, lung metastases day 27, D1-D4 25 mg/kg, Docetaxel 4.2 mg/kg

Compound: 4-N—(N—(N—(N-(6-maleimido caproyl)-L-alanyl)-L-alanyl)-L-asparaginyl)-amino benzyl alcohol-MMAE-carbamate [Compound S6]
- Activation efficiency by tumor tissue, in words (tumor tissue homogenates): relatively low activation efficiency
- Activation Efficiencies (%) [1]: 24.3%
- Activation Efficiencies (%) (Human heart): 5.3%

Compound: COCCOCC(=O)N[C@H](C)C(=O)N[C@H](C)C(=O)N[C@H](CC(N)=O)C(=O)Nc1ccc(COC(=O)OC(C(=O)OC2C[C@@]3(O)C(OC(=O)c4ccccc4)[C@@H]4C5(OC(C)=O)COC5C[C@H](O)[C@@]4(C)C(=O)[C@H](OC(C)=O)C(=C2C)C3(C)C)[C@@H](NC(=O)c2ccccc2)c2ccccc2)cc1 (stereo in doubt) [S1′, 2-(2-methoxyethoxy) acetylamino-L-Ala-L-Ala-L-Asn-p-amino-benzyl-paclitaxel]
- Behaviors and death observed (BALB/C mice; [4]): no pilo-erection, hair tousle and lackluster, lethargy, stoop, irritable reaction and death
- MTD (maximum tolerated dose) (BALB/C mice; BALB/C mice): about 90 mg/kg
- Mortality rate (%) (BALB/C mice; BALB/C mice, single iv, 125 mg/kg): 0%
- Number of dead animal (BALB/C mice; BALB/C mice, single iv, 125 mg/kg, 10 animals): 0
- Mortality rate (%) (BALB/C mice; BALB/C mice, single iv, 150 mg/kg): 0%
- Number of dead animal (BALB/C mice; BALB/C mice, single iv, 150 mg/kg, 10 animals): 0
- Mortality rate (%) (BALB/C mice; BALB/C mice, single iv, 175 mg/kg): 0%
- Number of dead animal (BALB/C mice; BALB/C mice, single iv, 175 mg/kg, 10 animals): 0
- Mortality rate (%) (BALB/C mice; BALB/C mice, single iv, 200 mg/kg): 10%
- Number of dead animal (BALB/C mice; BALB/C mice, single iv, 200 mg/kg, 10 animals): 1
- Inhibitory rate on metastasis (4T1 cells; [5]): 99.2%
- Number of metastasized tumor (4T1 cells; [5]): 2 ± 3
- Inhibitory effect on tumor metastasis, in words (4T1 cells): greatly improved
- Activation efficiency by tumor tissue, in words (tumor tissue homogenates): highest activation efficiency among the screened compounds
- Activation ratio (%) in homogenates from different tumor tissues ([1]; 100 μg acidized homogenate pH6.0, 1 mg/ml, 37°): 74.7%
- Activation ratio (%) in homogenates from different tumor tissues (Human heart; 37°): none
- solubility in Solvent 1 ([2]; Solvent 1 injectable water, dissolution concentration 10 mg/ml): soluble
- solubility in Solvent 2 ([2]; Solvent 2: 50% injectable water, 45%-49% propanediol, 1%-5% Tween80, dissolution concentration 10 mg/ml): soluble
- Concentration achieved, completely dissolved in both solvent 1 and solvent 2 ([2]; solvent 2 50% injectable water, 42%-49% propanediol, 1%-8% Tween80): 10000 µg/mL
- Inhibition on tumor growth, in words [3]: greatly improved
- Size of tumor (mm^3) Day 10 ([3]; S1′-S4′ 24 mg/kg): 76.42 ± 14.96 mm^3
- inhibitory rate on tumor Day 10 ([3]; S1′-S4′ 24 mg/kg): 35.7%
- Size of tumor (mm^3) Day 24 ([3]; S1′-S4′ 24 mg/kg): 84.62 ± 45.94 mm^3
- inhibitory rate on tumor Day 24 ([3]; S1′-S4′ 24 mg/kg): 66.1%

Compound: COCCOCC(=O)NCCCC[C@H](NC(=O)COCCOC)C(=O)N[C@H](C)C(=O)N[C@H](C)C(=O)N[C@H](CC(N)=O)C(=O)Nc1ccc(COC(=O)OC(C(=O)OC2C[C@@]3(O)[C@@H](OC(=O)c4ccccc4)[C@H]4[C@](C)(C(=O)[C@H](OC(C)=O)C(=C2C)C3(C)C)[C@@H](O)CC2OC[C@]24OC(C)=O)[C@@H](NC(=O)c2ccccc2)c2ccccc2)cc1 (stereo partly drawn) [Compound A1]
- Behaviors and death observed (BALB/C mice; [4]): no pilo-erection, hair tousle and lackluster, lethargy, stoop, irritable reaction and death
- MTD (maximum tolerated dose) (BALB/C mice; BALB/C mice): about 90 mg/kg
- Mortality rate (%) (BALB/C mice; [6]): 0%
- Number of dead animal (BALB/C mice; [6]): 0
- Mortality rate (%) (BALB/C mice; [7]): 0%
- Number of dead animal (BALB/C mice; [7]): 0
- Mortality rate (%) (BALB/C mice; [8]): 0%
- Number of dead animal (BALB/C mice; [8]): 0
- Mortality rate (%) (BALB/C mice; [9]): 0%
- Number of dead animal (BALB/C mice; [9]): 0
- Inhibitory rate on metastasis (4T1 cells; [10]): 97.9%
- Number of metastasized tumor (4T1 cells; [10]): 3 ± 4
- Inhibitory effect on tumor metastasis, in words (4T1 cells): greatly improved
- Activation efficiency by tumor tissue, in words (tumor tissue homogenates): highest activation efficiency among the screened compounds
- Activation ratio (%) in homogenates from different tumor tissues ([1]; 1 mg/ml, 100 μg acidized homogenate pH6.0, Paclitaxel release by HPLC): 77.7%
- Activation ratio (%) in homogenates from different tumor tissues (Human heart; acidized homogenate pH6.0, Paclitaxel release by HPLC): none
- solubility in Solvent 1 ([2]; solvent 1 (injectable water), Table 22, Paclitaxel series): insoluble
- Concentration achieved, completely dissolved in both solvent 1 and solvent 2 ([2]; solvent 2 45% alcohol, 55% injectable water): 10000 µg/mL
- solubility in Solvent 2 ([2]; solvent 2 (45% alcohol, 55% injectable water), Table 22, Paclitaxel series): soluble
- Solubility in water, in words ([2]; water): can directly dissolve in water
- Size of tumor (mm^3) Day 10 ([3]; Table 26, A1-A4 24 mg/kg): 85.16 ± 58.4 mm^3
- inhibitory rate on tumor Day 10 ([3]; Table 26, A1-A4 24 mg/kg): 71.1%
- Size of tumor (mm^3) Day 24 ([3]; Table 26, A1-A4 24 mg/kg): 89.78 ± 63.7 mm^3
- inhibitory rate on tumor Day 24 ([3]; Table 26, A1-A4 24 mg/kg): 76.4%
- Inhibition on tumor growth, in words [3]: greatly improved

Compound: COCCOCC(=O)N[C@H](C)C(=O)N[C@H](C)C(=O)N[C@H](CC(N)=O)C(=O)Nc1ccc(COC(=O)OC(C(=O)OC2C[C@@]3(O)[C@@H](OC(=O)c4ccccc4)[C@H]4[C@](C)(C(=O)[C@H](O)C(=C2C)C3(C)C)[C@@H](O)CC2OC[C@]24OC(C)=O)[C@@H](NC(=O)OC(C)(C)C)c2ccccc2)cc1 (stereo partly drawn) [Compound D1, 2-(2-methoxyethoxy) acetyl-L-Ala-L-Ala-L-Asn-4-amino benzyl-Docetaxel]
- Behaviors and death observed (BALB/C mice; BALB/C mice receiving 150 mg/kg injection): no pilo-erection, hair tousle and lackluster, lethargy, stoop, irritable reaction and death
- MTD (maximum tolerated dose) (BALB/C mice; BALB/C mice): about 150 mg/kg
- Mortality rate (%) (BALB/C mice; [6]): 0%
- Number of dead animal (BALB/C mice; [6]): 0
- Mortality rate (%) (BALB/C mice; [7]): 0%
- Number of dead animal (BALB/C mice; [7]): 0
- Mortality rate (%) (BALB/C mice; [8]): 0%
- Number of dead animal (BALB/C mice; [8]): 0
- Mortality rate (%) (BALB/C mice; [9]): 10%
- Number of dead animal (BALB/C mice; [9]): 1
- Inhibitory rate on metastasis (4T1 cells; [11]): 95.2
- Number of metastasized tumor (4T1 cells; [11]): 5 ± 3
- Inhibitory effect on tumor metastasis, in words (4T1 cells): greatly improved
- Activation efficiency by tumor tissue, in words (tumor tissue homogenates): highest activation efficiency
- Activation ratio (%) in homogenates from different tumor tissues ([1]; Table 45, 1 mg/ml, 100 μg acidized homogenate, Docetaxel release by HPLC): 77.23%
- solubility in Solvent 1 ([2]; Table 44, second column (head repeats Solvent 1), text: solvent 2 (45% alcohol, 55% injectable water)): soluble
- solubility in Solvent 1 ([2]; solvent 1 (injectable water), Table 44, first column, Docetaxel D series): insoluble

Compound: CCCCCOC(=O)Nc1nc(=O)n([C@@H]2O[C@H](C)[C@@H](OC(=O)OCc3ccc(NC(=O)[C@H](CC(N)=O)NC(=O)[C@H](C)NC(=O)[C@H](C)NC(=O)CCCCCCC(=O)NO)cc3)[C@H]2O)cc1F [Compound S3, 4-N—(N—(N—(N-(8-(N-hydroxylamino)-1,8-octandioic acid-1-monoacyl)-L-alanyl)-L-alanyl)-L-asparaginyl)-amino benzyl alcohol-capecitabine-carbonic acid diester]
- Activation efficiency by tumor tissue, in words (tumor tissue homogenates): very high activation efficiency
- Activation Efficiencies (%) [1]: 94.9%
- Activation Efficiencies (%) (Human heart): 1.6%
